How the values were obtained:
[1] = tested on: U87 cells; test: Viability test (LIVE/DEAD kit, flow cytometry); assay type: cell-based, Human
Experimental: (§1) Cell culture: Human glioblastoma-astrocytoma cell line U87 MG from the American Type Culture Collection (reference ATCC-HTB-14) were cultured in Dulbecco's modified eagles medium (DMEM, Gibco Corp) supplemented with 10% fetal calf serum (FCS, Gibco Corp), in a humidified atmosphere with 5% CO2 at 37° C.
Viability Test: The viability study of U87 cells treated or not with the alkoxyamine was measured by the LIVE/DEAD® Viability/Cytotoxicity Kit (Molecular Probes, Invitrogen, Life Technologies). Briefly, the cells were allowed to grow during 24 h on 24 multiwell plates (Becton-Dickinson, 2 cm^2/well). They were then treated with the alkoxyamine at concentrations ranging from 0.1 to 3 mM and tested for viability at distinct observation times (1, 3, 6, 24 or 72 h). To do this the adherent cells were dissociated from the plate by trypsinization and pelleted by centrifugation. Then, the cells were resuspended at 10^6 cells/mL on calcein-am and ethidium homodimer-1 solution during 20 minutes at room temperature and analyzed on a Guava easyCyte flow cytometer/counter (Millipore). U87 cells viability was also measured after treatment with previously homolysed alkoxyamine. For these experiments, the alkoxyamine was incubated in the culture medium during 72 h at 6 mM without the cells. U87 cells were then treated with different concentrations of this homolysed alkoxyamine for 1 h and a viability test was performed as previously described. The viability test in the presence of the free radical scavenger was carried out with an alkoxyamine concentration of 3 mM and an incubation time of 1 h. U87 cells viability was measured versus increasing concentrations the radical scavenger, trihydroxyethylrutin (Santa Cruz Biotechnology, inc.) namely, 20, 50 or 100 mM.

[2] = tested on: U87 cells; test: Oxidative stress (carboxy-H2DCFDA probe, flow cytometry); assay type: cell-based, Human; details: 3 mM, 1 h
Experimental: as §1
Oxidative stress: The cells were grown in a 24 multiwell plate as previously described. Then, cells were dissociated using 0.05% trypsin (Invitrogen, Carlsbad, Calif., USA) and suspended at a density of 1×10^6 cells/mL in carboxy-H2DCFDA (Molecular Probes, Invitrogen, Life Technologies) at 50 μM. After 30 minutes incubation at 37° C., cells were washed with phosphate buffered saline (PBS). Cells were centrifuged and resuspended with cell culture media containing or not 3 mM alkoxyamine with or without trihydroxyethylrutin at 20 or 50 mM. After incubation time the cells were washed and analyzed on a Guava easyCyte flow cytometer/counter.

[3] = tested on: U87 cells; test: Mitochondrial alterations measurements (TMRE, NAO); assay type: cell-based, Human
Experimental: as §1
Mitochondrial alterations measurements. The red fluorescent dye tetramethylrhodamine ethyl ester (TMRE, Molecular Probes, Invitrogen, Life Technologies) was used to follow variations in mitochondrial membrane potential. This cationic probe accumulates in polarized mitochondria through the electrochemical gradient. Nonyl Acridine Orange (NAO, Molecular Probes, Invitrogen, Life Technologies) was then used as a complementary assay to assess the changes in mitochondrial morphology. Cells were plated on 24 multi-well plates (Becton-Dickinson, 2 cm^2/well) during 24 h and treated with a range of ALK-1 concentrations (0.1; 0.25; 0.375; 0.5; 0.75; 1.0 and 1.5 mM). After 3, 24 or 72 h, cells were resuspended in TMRE (250 nM) or NAO (500 nM) and incubated 30 minutes at 37° C., 5% CO2. Incubation with 0.5 mM of Carbonyl cyanide 3-chlorophenylhydrazone (CCCP, Sigma-Aldrich) was performed as positive control of the mitochondrial depolarization staining. Then, cells were washed and analyzed by flow cytometry. All the experiments were performed three times.

[4] = tested on: U87 cells; test: Cell death analysis by annexin V/propidium iodide staining; assay type: cell-based, Human
Experimental: as §1
Cell death analysis by annexin V/propidium iodide staining. Cell death was detected by annexin V-FITC (Molecular Probes, Invitrogen, Life Technologies) binding to exposed […] (PS) residues at the surface of cells. Cells were treated with ALK-1 at concentrations ranging from 0.1 to 1.5 mM at 37° C. and tested at distinct observation times (3, 24 or 72 h). After treatment, cells were re-suspended in staining buffer containing propidium iodide (PI, 2 μg/mL) and annexin V-FITC. Double-labeling was performed at room temperature for 15 min in darkness. Then, the percentage of viable (IP−/AV−), early apoptotic (IP−/AV+) and late apoptosis/necrotic cells (IP+/AV+) was quantified by flow cytometry. These experiments were performed twice.

[5] = tested on: U87 cells; test: Apoptosis detection through caspase-3/-7 assay; assay type: cell-based, Human
Experimental: as §1
Apoptosis detection through caspase-3/-7 assay. Quantitative assessment of apoptotic cells was also conducted by the detection of caspase activity using the Vybrant® FAM Caspase-3 and -7 Assay Kit (Molecular Probes, Invitrogen, Life Technologies). Briefly, cells were treated with the previously described ALK-1 concentrations during 3, 24 or 72 h. After the alkoxyamine treatment, the cells were dissociated from the support, washed and incubated 1 h at 37° C. in FLICA working solution. Then, the cells were washed and green fluorescence was measured by flow cytometry. These experiments were performed twice.

[6] = Monitoring of ALK-1 homolysis by Overhauser-enhanced MRI (OMRI); assay type: physicochemical
From the text: EPR Cavity and MRI devices. The OMRI experiment were done in a C-shaped 0.2 T MRI system (Magnetom Open Viva, Siemens, Erlangen, Germany) and a resonant TE011 transverse electric mode EPR cavity setup (Bruker, Wissembourg, France) as described previously. The EPR cavity, placed at the center of the magnet, was used to saturate the electron spin transition of the nitroxide SG1 produced upon ALK-1 homolysis. A homemade saddle-shaped MRI coil (28 mm in diameter and 29 mm in length) in the EPR cavity was used for imaging.
Electron spin saturation was carried out at 5.4573 GHz, corresponding to the first line at high field from the center of the EPR spectrum. The proton frequency was 8.24 MHz. Sample temperature was kept at 37° C.
OMRI experiments were performed in two NMR tubes (4 mm inner diameter): one containing 0.8 mM of SG1 nitroxide in phosphate buffer saline (not shown) and the other with 0.8 mM of ALK-1 in DMEM, 10% FCS. ALK-1 homolysis was followed for 48 hours.
Pulse sequences. […] All MR adjustments were done manually, using the same fixed receiver amplification gain for both measurements, without (Soff) and with (Son) HF irradiation, so that signals can be directly compared and Overhauser enhancements (Son/Soff) calculated.
Post-processing. […] Signal intensity was measured in a rectangular region of interest of 2 mm^2 positioned in the NMR tube area. […]

[7] = cited from earlier work

CCOP(=O)(OCC)C(N(OC(C)c1cc[n+](C)cc1)C(C)(C)C)C(C)(C)C (stereo not shown) [ALK-1, N-methyl 4-(1-((tert-butyl(1-(diethoxyphosphoryl)-2,2-dimethylpropyl)amino)oxy)ethyl)pyridin-1-ium 4-methylbenzenesulfonate]
cells saved by the free radical scavenger ([1]; 3 mM alkoxyamine, 1 h, with free radical scavenger (trihydroxyethylrutin)): 80%
cells killed ([1]; 3 mM, one hour): approximately 75%
cytotoxic effect ([1]; 0.1 to 3 mM): dose-dependent cytotoxic effect
toxicity for U87 cells of previously homolysed alkoxyamine ([1]; same concentration, previously homolysed (72 h in culture medium), 1 h treatment): do not carry any toxicity
oxidative stress [2]: strong oxidative stress
NAO staining ([3]; 24 h, ALK-1 concentrations greater than 0.5 mM): increased
concentration from which the mitochondrial potential drops (TMRE) ([3]; all times of observation (3, 24, 72 h)): ≥ 0.5 mM
necrotic or apoptotic cells (PI+/AV+) ([4]; 3 h, 1.5 mM): most cells were necrotic or apoptotic cells
necrotic or apoptotic cells (PI+/AV+) ([4]; 24 h, 1 mM): 94%
PI+/AV+ cells ([4]; 72 h, 0.5 mM): most cells were PI+/AV+
cells carrying activated caspases ([5]; 3 h, 1.5 mM): 92%
caspase positive cells ([5]; 24 h, 1 mM): 88%
caspase+ cells ([5]; 72 h, 0.25 mM): more than 40%
caspase positive cells ([5]; 72 h, 0.5 mM): 80%
Ea (homolysis activation energy) ([6]; afforded by the OMRI t1/2): 26.1 kcal/mol
half-life at 0.8 mM ([6]; cell culture medium (DMEM, 10% FCS), 0.8 mM, culture cell medium, 37° C., OMRI, read-out: experimental t1/2 of homolysis): ~2.08 h
Ea (homolysis activation energy), value reported [7]: 25.3 kcal/mol

N#CC(C#N)=NNc1cccc(Cl)c1 [CCCP, Carbonyl cyanide 3-chlorophenylhydrazone, reference compound]
mitochondrial potential (TMRE) ([3]; 0.5 mM CCCP positive control, all incubation times): expected drop of the mitochondrial potential
accessibility of the cardiolipins to NAO ([3]; 0.5 mM CCCP, independently of incubation time): either neutral or positive

From patent publication US10421725B2, “Alkoxyamines for the treatment of cancers” (Centre National De La Recherche Scientifique, priority 2013, dated 2019)
